Reference: patent publication US10807982B2, “Bromodomain inhibitors” (CELGENE QUANTICEL RESEARCH, INC., priority 2015, dated 2020)
Where a name gives a salt, the structure may show the parent alone.

How the values were obtained:
[1] = system: HL-60, human proleukemia cells; assay: Cell-MTS cellular proliferation assay, HL-60; assay type: cell-based; conditions: Homo sapiens, HL-60 cells, 168 hr incubation
Outline: (§1)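 Cells seeded to reach ~90% confluence at 7 days (Raji 15,000, HL-60 5,000, NCI-H460 3,000 per well); 11-point compound dilution, 100 µM to 2.0 nM final, added 24 h after plating. Exposure 168 hr at 37 °C, 5% CO2; MTS read at OD490. IC50 from background-subtracted OD490 normalized to DMSO controls.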

[2] = system: NCI-H460, human non-small cell lung cancer cells; assay: Cell-MTS cellular proliferation assay, NCI-H460; assay type: cell-based; conditions: Homo sapiens, 168 hr incubation
Outline: as §1

[3] = system: Raji, human Burkitts lymphoma cells; assay: Cell-MTS cellular proliferation assay, Raji; assay type: cell-based; conditions: Homo sapiens, 168 hr incubation
Outline: as §1

BRD4(BD1) = BRD4(BD1) (Homo sapiens (Human), UniProt O60885); assay: In vitro enzyme inhibition assay (BRD4 AlphaScreen, H4-tetraacetyl peptide); assay type: binding; conditions: BRD4(BD1) 2 nM, peptide 15 nM
Outline: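 His-tagged BRD4(BD1), 2 nM, with 15 nM biotinylated H4K5/8/12/16(Ac) peptide in HEPES pH 7.3 buffer, 0.4% DMSO, 20 min RT with compound. Streptavidin donor and Ni-chelate acceptor beads (5 μg/mL) then equilibrated 2 h. AlphaScreen signal; IC50 by four-parameter fit.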

Compound | IC50 [1] [nM] | IC50 [2] [µM] | IC50 [3] [nM] | IC50 (BRD4(BD1)) [nM]
CN1Cc2cc(OCC(F)(F)F)c(-c3cn(C)c(=O)c4ccccc34)cc2S1(=O)=O [Example 10, 2-methyl-4-[2-methyl-1,1-dioxo-5-(2,2,2-trifluoroethoxy)-3H-1,2-benzothiazol-6-yl]isoquinolin-1-one] | ≤ 500 | 0.5 to 5 | 500 to 5000 | ≤ 500
COc1cc2c(cc1-c1cn(C)c(=O)c3ccccc13)S(=O)(=O)N(C)C2 [Example 4, 4-(5-methoxy-2-methyl-1,1-dioxo-3H-1,2-benzothiazol-6-yl)-2-methylisoquinolin-1-one] | ≤ 500 | 0.5 to 5 | 500 to 5000 | ≤ 500
Cc1cc(-c2cc(NS(C)(=O)=O)ccc2Oc2ccc(F)cc2F)c2n(c1=O)CCC2 [Example 86, N-[4-(2,4-difluorophenoxy)-3-(6-methyl-5-oxo-2,3-dihydro-1H-indolizin-8-yl)phenyl]methanesulfonamide] | ≤ 500 | > 5 | ≤ 500 | ≤ 500
CCN1Cc2cc(OCC3CC3)c(-c3cn(C)c(=O)c4ccccc34)cc2S1(=O)=O [Example 7, 4-[5-(cyclopropylmethoxy)-2-ethyl-1,1-dioxo-3H-1,2-benzothiazol-6-yl]-2-methylisoquinolin-1-one] | ≤ 500 | 0.5 to 5 | ≤ 500 | ≤ 500
Cn1cc(-c2cc3c(S(C)(=O)=O)nn(C)c3cc2OCC2CC2)c2ccccc2c1=O [Example 29, 4-[6-(cyclopropylmethoxy)-1-methyl-3-methylsulfonylindazol-5-yl]-2-methylisoquinolin-1-one] | ≤ 500 | 0.5 to 5 | ≤ 500 | ≤ 500
COc1cc(-c2cc(NS(C)(=O)=O)c3c(F)nn(Cc4ccc(F)cc4)c3c2)cn(C)c1=O [Example 65, N-[3-fluoro-1-[(4-fluorophenyl)methyl]-6-(5-methoxy-1-methyl-6-oxopyridin-3-yl)indazol-4-yl]methanesulfonamide] | ≤ 500 | > 5 | ≤ 500 | ≤ 500
CCS(=O)(=O)Nc1cc(-c2cn(C)c(=O)c3ccccc23)c2oc(C3CCCC3)nc2c1 [Example 53, N-[2-cyclopentyl-7-(2-methyl-1-oxoisoquinolin-4-yl)-1,3-benzoxazol-5-yl]ethanesulfonamide] | ≤ 500 | > 5 | ≤ 500 | ≤ 500
Cn1cc(-c2cc(S(C)(=O)=O)cc3cc(-c4ccccc4)oc23)c2ccccc2c1=O [Example 26, 2-methyl-4-(5-methylsulfonyl-2-phenyl-1-benzofuran-7-yl)isoquinolin-1-one] | ≤ 500 | 0.5 to 5 | ≤ 500 | ≤ 500
CCS(=O)(=O)Nc1cc(-c2cn(C)c(=O)c3ccccc23)c2oc(C3CC3)cc2c1 [Example 82, N-[2-cyclopropyl-7-(2-methyl-1-oxoisoquinolin-4-yl)-1-benzofuran-5-yl]ethanesulfonamide] | ≤ 500 | ≤ 0.5 | ≤ 500 | ≤ 500
Cc1cc(-c2cc3c(nc(C)n3Cc3ccc(F)cc3)c(NS(C)(=O)=O)n2)cn(C)c1=O [Example 60, N-[6-(1,5-dimethyl-6-oxopyridin-3-yl)-1-[(4-fluorophenyl)methyl]-2-methylimidazo[4,5-c]pyridin-4-yl]methanesulfonamide] | ≤ 500 | > 5 | ≤ 500 | ≤ 500
Cn1cc(-c2cc(NS(C)(=O)=O)c3c(c2)N(Cc2ccccc2)CC3)c2ccccc2c1=O [Example 20, N-[1-benzyl-6-(2-methyl-1-oxoisoquinolin-4-yl)-2,3-dihydroindol-4-yl]methanesulfonamide] | ≤ 500 | 0.5 to 5 | ≤ 500 | ≤ 500
CCS(=O)(=O)Nc1cc(-c2cn(C)c(=O)c3ccccc23)c2oc(C3CC3)nc2c1 [Example 48, N-[2-cyclopropyl-7-(2-methyl-1-oxoisoquinolin-4-yl)-1,3-benzoxazol-5-yl]ethanesulfonamide] | ≤ 500 | ≤ 0.5 | ≤ 500 | ≤ 500

Now from value to molecule:

IC50 [1] [nM] | IC50 [2] [µM] | IC50 [3] [nM] | IC50 (BRD4(BD1)) [nM] | Compound
≤ 500 | > 5 | 500 to 5000 | ≤ 500 | Cc1cc(-c2cc3c(cc2OCC2CC2)CN(C)S3(=O)=O)cn(C)c1=O [Example 5, 5-[5-(cyclopropylmethoxy)-2-methyl-1,1-dioxo-3H-1,2-benzothiazol-6-yl]-1,3-dimethylpyridin-2-one]
≤ 500 | > 5 | ≤ 500 | ≤ 500 | CCS(=O)(=O)N1CCc2cc(OCC3CC3)c(-c3cc(C)c(=O)n(C)c3)cc21 [Example 16, 5-[5-(cyclopropylmethoxy)-1-ethylsulfonyl-2,3-dihydroindol-6-yl]-1,3-dimethylpyridin-2-one]
≤ 500 | 0.5 to 5 | ≤ 500 | ≤ 500 | Cc1cc(-c2cc(NS(C)(=O)=O)c3nc(C(F)(F)F)n(CC4CC4)c3c2)cn(C)c1=O [Example 92, N-[1-(cyclopropylmethyl)-6-(1,5-dimethyl-6-oxopyridin-3-yl)-2-(trifluoromethyl)benzimidazol-4-yl]methanesulfonamide]
≤ 500 | > 5 | ≤ 500 | ≤ 500 | CCOc1nc2c(CS(C)(=O)=O)cc(-c3cc(OC)c(=O)n(C)c3)cc2n1CC1CC1 [Example 98, 5-[3-(cyclopropylmethyl)-2-ethoxy-7-(methylsulfonylmethyl)benzimidazol-5-yl]-3-methoxy-1-methylpyridin-2-one]
≤ 500 | 0.5 to 5 | ≤ 500 | ≤ 500 | Cc1cc(-c2cc(NS(C)(=O)=O)c3ncn(Cc4cccc(F)c4)c3c2)cn(C)c1=O [Example 32, N-[6-(1,5-dimethyl-6-oxopyridin-3-yl)-1-[(3-fluorophenyl)methyl]benzimidazol-4-yl]methanesulfonamide]
≤ 500 | > 5 | ≤ 500 | ≤ 500 | Cc1cc(-c2cc(NS(C)(=O)=O)c3nc(C)n(Cc4ccccc4)c3c2)cn(C)c1=O [Example 34, N-[1-benzyl-6-(1,5-dimethyl-6-oxopyridin-3-yl)-2-methylbenzimidazol-4-yl]methanesulfonamide]
≤ 500 | > 5 | ≤ 500 | ≤ 500 | Cc1cc(-c2cc3c(S(C)(=O)=O)nn(C)c3cc2OCC2CC2)cn(C)c1=O [Example 58, 5-[6-(cyclopropylmethoxy)-1-methyl-3-methylsulfonylindazol-5-yl]-1,3-dimethylpyridin-2-one]
≤ 500 | > 5 | ≤ 500 | ≤ 500 | CCCCn1c(C)nc2c(NS(C)(=O)=O)cc(-c3cc(OC)c(=O)n(C)c3)cc21 [Example 95, N-[1-butyl-6-(5-methoxy-1-methyl-6-oxopyridin-3-yl)-2-methylbenzimidazol-4-yl]methanesulfonamide hydrochloride]
≤ 500 | 0.5 to 5 | ≤ 500 | ≤ 500 | CCS(=O)(=O)Nc1cc(-c2cc(C)c(=O)n(C)c2)c2oc(C3CC3)cc2c1
≤ 500 | > 5 | ≤ 500 | ≤ 500 | CCS(=O)(=O)N1CCOc2cc(OCC3CC3)c(-c3cc(C)c(=O)n(C)c3)cc21 [Example 50, 5-[7-(cyclopropylmethoxy)-4-ethylsulfonyl-2,3-dihydro-1,4-benzoxazin-6-yl]-1,3-dimethylpyridin-2-one]
≤ 500 | > 5 | ≤ 500 | ≤ 500 | Cc1cc(-c2cc3c(nc(C)n3Cc3ccccc3)c(NS(C)(=O)=O)n2)cn(C)c1=O [Example 61, N-[1-benzyl-6-(1,5-dimethyl-6-oxopyridin-3-yl)-2-methylimidazo[4,5-c]pyridine-4-yl]methanesulfonamide]
≤ 500 | 0.5 to 5 | ≤ 500 | ≤ 500 | CCS(=O)(=O)Nc1cc(-c2cc(C)c(=O)n(C)c2)cc2c1cnn2Cc1ccccc1 [Example 42, N-[1-benzyl-6-(1,5-dimethyl-6-oxopyridin-3-yl)indazol-4-yl]ethanesulfonamide]
≤ 500 | > 5 | 500 to 5000 | ≤ 500 | Cc1cc(-c2cc(CS(C)(=O)=O)cc3nc(C4CC4)oc23)cn(C)c1=O [Example 56, 5-[2-cyclopropyl-5-(methylsulfonylmethyl)-1,3-benzoxazol-7-yl]-1,3-dimethylpyridin-2-one]
≤ 500 | > 5 | 500 to 5000 | ≤ 500 | Cc1cc(-c2cc(NS(=O)(=O)C(C)C)cc3nc(C4CC4)oc23)cn(C)c1=O [Example 51, N-[2-cyclopropyl-7-(1,5-dimethyl-6-oxopyridin-3-yl)-1,3-benzoxazol-5-yl]propane-2-sulfonamide]
≤ 500 | 0.5 to 5 | ≤ 500 | ≤ 500 | CCOc1nc2c(NS(C)(=O)=O)cc(-c3cc(C)c(=O)n(C)c3)cc2n1CC1CC1 [Example 72, N-[1-(cyclopropylmethyl)-6-(1,5-dimethyl-6-oxopyridin-3-yl)-2-ethoxybenzimidazol-4-yl]methanesulfonamide]
